According to patent EP0303243A2, “Use of atrial natriuretic factor (ANF), fragments and analogues thereof, for the treatment of cardiac disorders” (HOECHST AKTIENGESELLSCHAFT, priority 1987, dated 1989):
Non-standard residues stand in square brackets, D forms with d. Residues, ends and D or L forms follow the SMILES beside them.

Test system: isolierten arbeitenden Rattenherzen
Experiment: Isolated working rat heart (Langendorff) with coronary occlusion (ischaemia) and reperfusion
Design: species or system Ratten
Conditions: 10^-7 mol/l; for Myokardiale Gewebsspiegel von ATP / Myokardiale Gewebsspiegel von Glykogen / Myokardiale Gewebsspiegel von KP / Myokardiale Gewebsspiegel von Laktat: ischaemic hearts perfused for 65 Minuten; for KK / LDH / Laktat: coronary venous effluent
Source text: Die erfindungsgemäßen Verbindungen verbessern arrhythmische Zustände, die Hämodynamik und den Stoffwechsel des Herzens. Ihre Wirkung wurde an Ratten im Test nach Langendorff geprüft (0. Langendorff "Untersuchungen am überlebenden Säugetierherzen", Pflügers Archiv […], Bd. 61, 291 - 332; H. Bardenheuer, J. Schrader "Relationships between myocardial oxygen consumption, coronary flow and adenosin release in an improved isolated working heart preparation of guinea pigs", Circulation Research, 1983, Bd. 51, 263 - 271
Die Koronargefäße der isolierten arbeitenden Rattenherzen wurden retrograd über die Aorta mit Krebs-Henseleit-Lösung perfundiert. In den linken Ventrikel wurde ein Ballon verbracht, der mit einem künstlichen "systemischen" Kreislauf verbunden war. Die Druck-Volumenarbeit wurde erreicht, indem aus dem Ballon in den systemischen Kreislauf Kochsalzlösung gepumpt wurde. Die Herzen wurden mit einem Druck von 65 mmHg perfundiert, die Nachlast betrug ebenfalls 65 mmHg und die Vorlast 7,4 mmHg. In einer Kontrollperfusionsperiode wurden die Herzen über 20 Minuten perfundiert. Danach wurde die linke Koronararterie in der Nähe ihres Austritts aus der Aorta mit einem Clip verschlossen. Nach 15 Minuten (ischämische Periode) wurde der Verschluß geöffnet und es schloß sich eine 30 minütige Reperfusionsphase an. Während dieses experimentellen Zeitverlaufs untersuchten wir die Effekte des ANF auf kardiodynamische Parameter, wie linker Ventrikeldruck (LVD), dp/dt max, Herzfrequenz (HF), Koronarfluß (KorF), myokardialer Sauerstoffverbrauch (MSV), auf Enzyme im koronarvenösen Effluat wie Laktat dehydrogenase (LDH) und Kreatinkinase (KK) sowie Laktat, auf metabolische Parameter im Myokard wie Laktat, Glykogen, Adenosintriphosphat (ATP) und Kreatinphosphat (KP) und auf Reperfusionsarrhythmien mittels EKG.
Eine Substanz wird dann als wirksam bezeichnet, wenn nach dem Abklemmen der linken Herzkoronararterie und anschließender Reperfusion keine Arrhythmien - im Vergleich zur unbehandelten Kontrolle - entstehen, wobei das Kammerflimmern (KF) einen meßbaren Parameter darstellt.
Die erfindungsgemäßen Verbindungen wurden in den entsprechenden Konzentrationen vor und nach Okklusion der linken Koronararterie perfundiert (n:10); (n:4). Kontrollherzen wurden mit Krebs-Henseleit-Lösung perfundiert (n:10).

CC[C@H](C)[C@@H]1NC(=O)[C@H](CCCNC(=N)N)NC(=O)[C@@H](CC(C)C)NC(=O)[C@H]([C@@H](C)CC)NC(=O)[C@@H](CCCNC(=N)N)NC1=O [cyclo-(D-Arg-Ile-D-Leu-Arg-Ile)] (cyclo(I[dL]RI[dR]))
Myokardiale Gewebsspiegel von ATP: * 13,25 ± 0,41 µmol/g Trockengewicht
Myokardiale Gewebsspiegel von Glykogen: * 121,09 ± 2,97 µmol/g Trockengewicht
Myokardiale Gewebsspiegel von KP: * 15,22 ± 0,83 µmol/g Trockengewicht
Myokardiale Gewebsspiegel von Laktat: * 3,87 ± 0,46 µmol/g Trockengewicht
HF (Ischämische Periode): 299 ± 7 Schläge/Min
KorF (Ischämische Periode): * 8,7 ± 0,4 ml/Min/g
LVD (Ischämische Periode): * 49 ± 4 mmHg
LVdp/dtmax (Ischämische Periode): * 1784 ± 109 mmHg • sec^-1
HF (Kontrollperfusionsperiode): 306 ± 7 Schläge/Min
KorF (Kontrollperfusionsperiode): 12,3 ± 0,8 ml/Min/g
LVD (Kontrollperfusionsperiode): 68 ± 3 mmHg
LVdp/dtmax (Kontrollperfusionsperiode): 2589 ± 101 mmHg • sec^-1
HF (Reperfusionsperiode): 284 ± 10 Schläge/Min
KorF (Reperfusionsperiode): * 12,9 ± 0,9 ml/Min/g
LVD (Reperfusionsperiode): 48 ± 6 mmHg
LVdp/dtmax (Reperfusionsperiode): 1724 ± 111 mmHg • sec^-1
KK (Ischämische Periode): * 32 ± 5 mU/min/g
LDH (Ischämische Periode): * 22 ± 4 mU/min/g
Laktat (Ischämische Periode): * 0,24 ± 0,03 µmol/min/g
KK (Kontrollperfusionsperiode): 32 ± 4 mU/min/g
LDH (Kontrollperfusionsperiode): 29 ± 5 mU/min/g
Laktat (Kontrollperfusionsperiode): * 0,18 ± 0,04 µmol/min/g
KK (Reperfusionsperiode): * 20 ± 4 mU/min/g
LDH (Reperfusionsperiode): * 14 ± 3 mU/min/g
Laktat (Reperfusionsperiode): * 0,16 ± 0,05 µmol/min/g

human ANF-(103-126) [h-ANF(103-126)]
Myokardiale Gewebsspiegel von ATP: * 11,01 ± 0,59 µmol/g Trockengewicht
Myokardiale Gewebsspiegel von Glykogen: * 113,15 ± 3,74 µmol/g Trockengewicht
Myokardiale Gewebsspiegel von KP: * 13,89 ± 0,99 µmol/g Trockengewicht
Myokardiale Gewebsspiegel von Laktat: * 4,03 ± 0,62 µmol/g Trockengewicht
HF (Ischämische Periode): 301 ± 5 Schläge/Min
KorF (Ischämische Periode): * 9,0 ± 0,2 ml/Min/g
LVD (Ischämische Periode): * 45 ± 3 mmHg
LVdp/dtmax (Ischämische Periode): * 1663 ± 117 mmHg • sec^-1
MSV (Ischämische Periode): * 11,5 ± 0,3 ml/min/100 g
HF (Kontrollperfusionsperiode): 298 ± 4 Schläge/Min
KorF (Kontrollperfusionsperiode): 11,1 ± 0,2 ml/Min/g
LVD (Kontrollperfusionsperiode): * 55 ± 2 mmHg
LVdp/dtmax (Kontrollperfusionsperiode): * 2125 ± 91 mmHg • sec^-1
MSV (Kontrollperfusionsperiode): * 14,5 ± 0,3 ml/min/100 g
HF (Reperfusionsperiode): 280 ± 4 Schläge/Min
KorF (Reperfusionsperiode): * 11,7 ± 0,3 ml/Min/g
LVD (Reperfusionsperiode): * 37 ± 2 mmHg
LVdp/dtmax (Reperfusionsperiode): * 1385 ± 91 mmHg • sec^-1
MSV (Reperfusionsperiode): 14,7 ± 0,4 ml/min/100 g
KK (Ischämische Periode): * 30 ± 2 mU/min/g
LDH (Ischämische Periode): * 20 ± 2 mU/min/g
Laktat (Ischämische Periode): * 0,18 ± 0,01 µmol/min/g
KK (Kontrollperfusionsperiode): 28 ± 3 mU/min/g
LDH (Kontrollperfusionsperiode): 21 ± 2 mU/min/g
Laktat (Kontrollperfusionsperiode): * 0,13 ± 0,01 µmol/min/g
KK (Reperfusionsperiode): * 18 ± 2 mU/min/g
LDH (Reperfusionsperiode): * 12 ± 1 mU/min/g
Laktat (Reperfusionsperiode): * 0,12 ± 0,04 µmol/min/g
KF (ventricular fibrillation (Kammerflimmern), Reperfusionsperiode): * 2,7 ± 0,9 Min
